Columns and labels:
axonal outgrowth = settings: models of nerve injury; earlier work of the Applicant (Borthwick et al., 2016); cited from earlier work
rats subjected to L5 SNL [1] = assay: Pain threshold, thermal hyperalgesia, hot plate (radiant heat paw withdrawal latency); assay type: in vivo; settings: rat L5 SNL; 3 mg/kg po every other day for 4 weeks; versus placebo; FIG. 2
Description: (§1) Adult male Sprague-Dawley rats (150-200 g) were housed under natural light: dark cycles and provided water and food ad lib. They were habituated to the testing paradigms for 3-5 days before data collection. All protocols were approved by the Animal Care and Use Committee of Kings College London and UK Home Office.
(§2) Animals were studied using the standard model for neuropathic pain (lumbar 5 spinal nerve ligation, L5 SNL; see, e.g., Kim et al., 1992). This is the most widely used model in neuropathic pain studies because of its high reproducibility of spontaneous and evoked pain (hyperalgesia, allodynia) and the absence of autotomy (see, e.g., Barrot, 2012; Huang et al., 2016).
(§3) Adult rats received a partial nerve ligation of the left sciatic nerve (see, e.g., Seltzer et al., 1990) under isoflurane (Abbott Animal Health) inhalation anesthesia. A small incision was made midway up the left thigh to expose the sciatic nerve. The nerve was carefully cleared of surrounding connective tissues at a site near the trochanter just distal to the point at which the posterior biceps semitendinosus nerve branches off the common sciatic nerve. […]
(§4) Pain thresholds were measured according to the methods described below, baseline at 1 day prior to surgery, and at 1, 6, 9, 16, 23, and 28 days after surgery.
Thermal hyperalgesia was assessed using a modified method of Hargreaves et al., 1988. […]

rats subjected to L5 SNL [2] = assay: Standard model for neuropathic pain (L5 SNL), behavioural studies overall; assay type: in vivo; settings: rat L5 SNL; treated for 4 weeks, 3 mg/kg po every other day; versus placebo
Description: as §1, §2, §3, §4

[3] = tested on: brain-derived neurotrophic factor (BDNF); assay: Immunocytochemistry of BDNF in spinal cord after nerve injury; assay type: in vivo; settings: rat; 14 days after injury; 3 mg/kg po every other day; versus placebo; FIG. 7
Method: (§5) Two groups of 11 rats were studied. In each group, the rats received partial nerve ligation of the left sciatic nerve (L5 SNL), as described above. In one group, the rats were treated with test compound; in the other group, the rats were treated with placebo. In each group, 8 animals were used for behavioral studies (for 28 days following surgery), as described below. In each group, 3 animals were used for tissue analysis (at 14 days following surgery), as described below.
(§6) Rats were treated with treatment solution or a placebo, orally, starting on the day after surgery and subsequently every other day for 4 weeks.
For treated animals, treatment solution was administered orally (po), by oral gavage, to give a dose of 3 mg/kg. […]
Multichannel fluorescence (DAPI-FITC-Texas Red filter set) images were captured using a Zeiss LSM 700 laser-scanning confocal microscope. […] Axiovision software was used to collect information on pixel immunoreactivity used for quantitative purposes. […]
FIG. 7 is a bar graph showing the BDNF level (arbitray units) in the dorsal horn ipsilateral to peripheral nerve injury for (a) rats treated with placebo and (b) rats treated with BOBA-001. Five serial sections per injured cord analysed, from 3 animals per group (n=3). […]

[4] = tested on: tumour necrosis factor α (TNFα); assay: RT-qPCR analysis of TNFα expression in spinal cord after nerve injury; assay type: in vivo; settings: rat; 14 days after injury; 3 mg/kg po every other day; versus placebo; FIG. 5
Method: as §5, §6
(§7) For treated animals, treatment solution was administered orally (po), by oral gavage, to give a dose of 3 mg/kg.
(§8) Fourteen days after injury, three rats from each group were sacrificed. […] Total RNA was isolated with the Qiagen RNeasy® Mini kit and reverse transcribed with a QuantiTect® Reverse Transcription kit (Qiagen). Levels of tumour necrosis factor α (TNFα) and tumour necrosis factor receptor 1 (TNFR1) expression were quantitated in triplicate, relative to glyceraldehyde 3-phosphate dehydrogenase (GAPDH) and triplicate non-template controls for each gene, by RT-qPCR analysis on a LightCycler® 480 instrument with LightCycler® SYBR® Green 1 Master reagent (Roche). […]

rats subjected to L5 SNL [5] = assay: Pain threshold, mechanical allodynia (von Frey hairs) after nerve ligation; assay type: in vivo; settings: rat L5 SNL; 3 mg/kg po every other day for 4 weeks; versus placebo; FIG. 1
Description: as §1, §2
(§9) Adult rats received a partial nerve ligation of the left sciatic nerve (see, e.g., Seltzer et al., 1990) under isoflurane (Abbott Animal Health) inhalation anesthesia. A small incision was made midway up the left thigh to expose the sciatic nerve. […]
as §4
Static mechanical withdrawal thresholds were assessed by applying von Frey hairs (Touch Test, Stoelting, Ill., USA) to the plantar surface of the hind paw. […] A positive response was recorded when a 40% withdrawal response occurred over 5 applications. […]

rats subjected to L5 SNL [6] = assay: Pain threshold, Randall-Selitto test (paw pressure threshold); assay type: in vivo; settings: rat L5 SNL; 3 mg/kg po every other day for 4 weeks; versus placebo; FIG. 4
Description: as §1, §2, §9, §4
Mechanical nociceptive thresholds were evaluated using an Analgesy-Meter (Ugo Basile, Comerio, Italy) (see, e.g., Raghavendra et al., 2003). […] The pressure required to elicit paw withdrawal, the paw pressure threshold, in grams, was determined. […]

[7] = tested on: tumour necrosis factor receptor 1 (TNFR1); assay: RT-qPCR analysis of TNFR1 expression in spinal cord after nerve injury; assay type: in vivo; settings: rat; 14 days after injury; 3 mg/kg po every other day; versus placebo; FIG. 6
Method: as §5, §6, §7, §8

rats subjected to L5 SNL [8] = assay: Pain threshold, thermal hyperalgesia, cold plate; assay type: in vivo; settings: rat L5 SNL; 3 mg/kg po every other day for 4 weeks; plate at 4 °C; versus placebo; FIG. 3
Description: as §1, §2, §9, §4
Withdrawal of the hind paw in response to painful cold stimulation was assessed using an Incremental Hot/Cold Plate (IITC Life Sciences) set at 4±0.1° C. […] The latency to withdraw the paw was measured to the nearest 0.01 seconds. […]

Cc1ccc(C)c2oc(-c3nc(-c4ccc(C(=O)O)cc4)no3)cc12 [BOBA-001, 4-(5-(4,7-Dimethylbenzofuran-2-yl)-1,2,4-oxadiazol-3-yl)benzoic acid]
axonal outgrowth (axonal outgrowth): causes axonal outgrowth | hot plate paw withdrawal (thermal threshold) (rats subjected to L5 SNL [1]): significant improvement | amelioration of pain (rats subjected to L5 SNL [2]): significant amelioration of pain | BDNF level in the dorsal horn ipsilateral to peripheral nerve injury [3]: significantly down-regulated | TNFα: GAPDH expression ratio in the dorsal horn ipsilateral to peripheral nerve injury [4]: significantly down-regulated | mechanical paw withdrawal threshold (von Frey) (rats subjected to L5 SNL [5]): significant improvement | Randall Sellito paw withdrawal threshold (mechanical threshold) (rats subjected to L5 SNL [6]): significant improvement | TNFR1: GAPDH expression ratio in the dorsal horn ipsilateral to peripheral nerve injury [7]: significantly down-regulated | cold plate paw withdrawal (thermal threshold) (rats subjected to L5 SNL [8]): significant improvement

From patent US20220204490A1, “Substituted 4-[5-(Benzofuran-2-yl)-1,2,4-Oxadiazol-3-yl]Benzoic Acid Compounds for Use in Therapy for Neuropathic Pain” (King's College London, priority 2019, published 2022)
